Measured values: PubChem BioAssay AID248 (DTP/NCI, 2004)
Values joined by “and” are separate entries in the source; they are usually repeats but may differ in a detail not shown here. Equal values may be shown once. Toxic doses and inconclusive results are not listed. Rule as the data show it: active = T/C of 150% or more; inactive = T/C below 125%.

System: L1210 leukemia ip in BDF1 mice, survival T/C
Assay: NCI In Vivo Anticancer Drug Screen. Data for tumor model L1210 Leukemia (intraperitoneal) in B6D2F1 (BDF1) mice
Settings: endpoint: mean survival time, higher = longer survival
Summary of the method: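 Antitumor effect is assessed in tumor-bearing animals. Survival in the compound arm is compared with a vehicle-dosed control arm and expressed as their quotient.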

[1] = dose: 100.0 mg/kg/injection, schedule: Q01DX001 (ip), vehicle: saline
[2] = dose: 200.0 mg/kg/injection, schedule: Q01DX001 (ip), vehicle: saline
[3] = dose: 400.0 mg/kg/injection, schedule: Q01DX001 (ip), vehicle: saline
[4] = dose: 100.0 mg/kg/injection, schedule: Q01DX009 (ip), vehicle: saline with Tween-80
[5] = dose: 100.0 mg/kg/injection, schedule: Q01DX009 (ip), vehicle: Klucel (hydroxypropylcellulose) (HPC)
[6] = dose: 100.0 mg/kg/injection, schedule: Q04DX003 (ip), vehicle: Klucel (hydroxypropylcellulose) (HPC)
[7] = dose: 200.0 mg/kg/injection, schedule: Q01DX009 (ip), vehicle: Klucel (hydroxypropylcellulose) (HPC)
[8] = dose: 200.0 mg/kg/injection, schedule: Q04DX003 (ip), vehicle: Klucel (hydroxypropylcellulose) (HPC)
[9] = dose: 400.0 mg/kg/injection, schedule: Q04DX003 (ip), vehicle: Klucel (hydroxypropylcellulose) (HPC)
[10] = dose: 100.0 mg/kg/injection, schedule: Q04DX002 (ip), vehicle: Klucel (hydroxypropylcellulose) (HPC)
[11] = dose: 200.0 mg/kg/injection, schedule: Q04DX002 (ip), vehicle: Klucel (hydroxypropylcellulose) (HPC)
[12] = dose: 400.0 mg/kg/injection, schedule: Q04DX002 (ip), vehicle: Klucel (hydroxypropylcellulose) (HPC)
[13] = dose: 100.0 mg/kg/injection, schedule: Q04DX003 (ip), vehicle: saline with Tween-80
[14] = dose: 200.0 mg/kg/injection, schedule: Q04DX003 (ip), vehicle: saline with Tween-80
[15] = dose: 400.0 mg/kg/injection, schedule: Q04DX003 (ip), vehicle: saline with Tween-80
[16] = dose: 25.0 mg/kg/injection, schedule: Q04DX002 (ip), vehicle: Klucel (hydroxypropylcellulose) (HPC)
[17] = dose: 400.0 mg/kg/injection, schedule: Q01DX009 (ip), vehicle: Klucel (hydroxypropylcellulose) (HPC)

Measured: T/C

COC(=O)C1(C)COP(=O)(NC2CCCCC2)OC1 (centres undefined)
inactive: [1] 94 % of control | [2] 97 % of control | [3] 108 % of control

CC(=O)C1(C)OC(c2ccc(F)cc2)=NC1=O (centres undefined)
inactive: [1] 102 % of control | [2] 102 % of control | [3] 98 % of control

CCN(CC)C(=O)SCCSC(=O)N(CC)CC
inactive: dose: 25.0 mg/kg/injection, schedule: Q01DX009 (ip), vehicle: saline with Tween-80 110 % of control | dose: 50.0 mg/kg/injection, schedule: Q01DX009 (ip), vehicle: saline with Tween-80 110 % of control | [4] 93 % of control

CC(C)OC(CCC#N)c1ccccc1 (centres undefined)
inactive: [5] 101 % of control | [6] 102 % of control | [7] 98 % of control | [8] 96 % of control | [9] 102 % of control

Nc1ccc(NC(=O)Nc2ccccc2)cc1
inactive: [10] 101 % of control | [11] 90 % of control | [12] 101 % of control

c1ccc(-c2nnn(CCn3nnc(-c4ccccc4)n3)n2)cc1
inactive: [6] 102 % of control | [8] 104 % of control | [9] 98 % of control

CCOC(=O)C(C)Oc1ccc([N+](=O)[O-])cc1Cl (centres undefined)
inactive: dose: 100.0 mg/kg/injection, schedule: Q01DX009 (ip), vehicle: gum acacia 94 % of control | dose: 200.0 mg/kg/injection, schedule: Q01DX009 (ip), vehicle: gum acacia 99 % of control | dose: 400.0 mg/kg/injection, schedule: Q01DX009 (ip), vehicle: gum acacia 99 % of control

CCOC(=O)c1sc(SSc2nc(C)c(C(=O)OCC)s2)nc1C
inactive: [13] 102 % of control | [14] 94 % of control | [15] 91 % of control

O=[N+]([O-])c1ccc(/C=N/c2oc(-c3ccc([N+](=O)[O-])cc3)nc2Sc2ccccc2)cc1
inactive: [16] 106 % of control | [11] 96 % of control and 97 % of control and 92 % of control | [12] 96 % of control

Cc1cc(C)c([S-])c(C)c1.[Cu+]
inactive: dose: 18.8 mg/kg/injection, schedule: Q01DX001 (ip), vehicle: saline 98 % of control

CC(=Nc1cc(C)c(C)cc1C)c1c(O)cc(C)oc1=O
inactive: [5] 93 % of control | [10] 98 % of control | [7] 98 % of control | [11] 98 % of control | [17] 87 % of control | [12] 98 % of control

CCCCCC(=O)NNC(=O)CCCCC
inactive: dose: 75.0 mg/kg/injection, schedule: Q01DX001 (ip), vehicle: saline 91 % of control | dose: 150.0 mg/kg/injection, schedule: Q01DX001 (ip), vehicle: saline 91 % of control | dose: 300.0 mg/kg/injection, schedule: Q01DX001 (ip), vehicle: saline 94 % of control

O=C(/C=C\c1ccccc1)Nc1c(Cl)cc(Cl)cc1Cl
inactive: [10] 91 % of control | [11] 107 % of control | [12] 95 % of control

NC1CC(c2ccccc2)NC(c2ccccc2)C1 (centres undefined)
inactive: dose: 15.0 mg/kg/injection, schedule: Q01DX001 (ip), vehicle: carboxymethylcellulose (CMC) 100 % of control

NC(CS/C(Cl)=C/Cl)C(=O)O (centres undefined)
inactive: dose: 1.5 mg/kg/injection, schedule: Q01DX009 (ip), vehicle: saline 101 % of control | dose: 3.0 mg/kg/injection, schedule: Q01DX009 (ip), vehicle: saline 106 % of control | dose: 6.0 mg/kg/injection, schedule: Q01DX009 (ip), vehicle: saline 104 % of control | dose: 12.0 mg/kg/injection, schedule: Q01DX009 (ip), vehicle: saline 98 % of control | dose: 17.0 mg/kg/injection, schedule: Q01DX009 (ip), vehicle: saline 101 % of control | dose: 27.0 mg/kg/injection, schedule: Q01DX009 (ip), vehicle: saline 95 % of control

COc1ccc(Cl)cc1CC=O
inactive: dose: 100.0 mg/kg/injection, schedule: Q01DX001 (ip), vehicle: carboxymethylcellulose (CMC) 118 % of control | dose: 200.0 mg/kg/injection, schedule: Q01DX001 (ip), vehicle: carboxymethylcellulose (CMC) 118 % of control | dose: 400.0 mg/kg/injection, schedule: Q01DX001 (ip), vehicle: carboxymethylcellulose (CMC) 114 % of control

CCSc1ccc2c(cc1=O)C(NC(C)=O)CCc1cc(OC)c(OC)c(OC)c1-2 (centres undefined)
inactive: [16] 105 % of control | dose: 50.0 mg/kg/injection, schedule: Q04DX002 (ip), vehicle: Klucel (hydroxypropylcellulose) (HPC) 102 % of control

O=P1(CCc2ccc(Cl)cc2)CC(Br)C(Br)C1 (centres undefined)
inactive: dose: 100.0 mg/kg/injection, schedule: Q04DX003 (ip), vehicle: other 93 % of control | dose: 200.0 mg/kg/injection, schedule: Q04DX003 (ip), vehicle: other 95 % of control | dose: 400.0 mg/kg/injection, schedule: Q04DX003 (ip), vehicle: other 98 % of control

CCCCCCCCP(=O)(N1CC1CC)N1CC1CC (centres undefined)
inactive: dose: 50.0 mg/kg/injection, schedule: Q01DX001 (ip), vehicle: saline 101 % of control | [1] 103 % of control | [2] 101 % of control

O=C(NCCCN1CC1)C(=O)Nc1ccccn1
inactive: [6] 102 % of control | [8] 86 % of control

COc1ccc(C(=O)/C=C/c2ccc(OC)c(Br)c2)cc1
inactive: [6] 95 % of control | [8] 95 % of control | [9] 94 % of control

Nc1ncnc2nc(-c3cccc(CNC(=O)c4ccccc4S(=O)(=O)F)c3)[nH]c12
inactive: dose: 25.0 mg/kg/injection, schedule: Q01DX001 (ip), vehicle: saline with Tween-80 93 % of control | dose: 50.0 mg/kg/injection, schedule: Q01DX001 (ip), vehicle: saline with Tween-80 88 % of control | dose: 100.0 mg/kg/injection, schedule: Q01DX001 (ip), vehicle: saline with Tween-80 87 % of control

NCCOB(c1ccccc1)c1ccccc1
inactive: dose: 3.8 mg/kg/injection, schedule: Q01DX009 (ip), vehicle: saline with Tween-80 94 % of control | dose: 7.5 mg/kg/injection, schedule: Q01DX009 (ip), vehicle: saline with Tween-80 105 % of control | dose: 15.0 mg/kg/injection, schedule: Q01DX009 (ip), vehicle: saline with Tween-80 91 % of control

CC1=C2C(=O)c3ccccc3C2=C(C)S(=O)(=O)O1
inactive: [4] 101 % of control | [13] 98 % of control | dose: 200.0 mg/kg/injection, schedule: Q01DX009 (ip), vehicle: saline with Tween-80 88 % of control | [14] 106 % of control | dose: 400.0 mg/kg/injection, schedule: Q01DX009 (ip), vehicle: saline with Tween-80 94 % of control | [15] 98 % of control

O=C1C=C(c2ccccc2)C2(c3ccccc3)OC2O1 (centres undefined)
inactive: [5] 109 % of control | [6] 98 % of control | [7] 100 % of control | [8] 98 % of control | [17] 98 % of control | [9] 98 % of control

COc1cc2ccc(C(C)NCC#N)cc2cc1OC (centres undefined)
inactive: [5] 97 % of control | [6] 88 % of control | [7] 101 % of control | [8] 93 % of control | [9] 106 % of control

COc1ccc(C(=O)c2ccc(C)cc2)cc1
inactive: [5] 102 % of control | [6] 95 % of control | [7] 105 % of control | [8] 101 % of control | [17] 96 % of control | [9] 102 % of control
